Experiment [1] relates to U-87 MG. Put plainly: Antiproliferative activity against human U87 cells assessed as reduction in cell viability at 0.1 to 250 uM measured after 72 hrs by MTT assay. It counts as functional, cell-based. The settings on record: U-87MG ATCC, dose 0.1-250 µM. (In general: Formazan colour is commonly taken as a measure of viable cells.)
For experiment [2], the system named is Daoy. Put plainly: Antiproliferative activity against human Daoy cells assessed as reduction in cell viability at 0.1 to 250 uM measured after 72 hrs by MTT assay. The class given is functional, cell-based. The settings on record: dose 0.1-250 µM.
Experiment [3] concerns U-251. Put plainly: Antiproliferative activity against human U-251 cells assessed as reduction in cell viability at 0.1 to 250 uM measured after 72 hrs by MTT assay. The settings on record: dose 0.1-250 µM. It counts as functional, cell-based.
In experiment [4] the test system is MDA-MB-231. The experiment can be described thus: Antiproliferative activity against human MDA-MB-231 cells assessed as reduction in cell viability at 0.1 to 250 uM measured after 72 hrs by MTT assay. The class given is functional, cell-based. The settings on record: dose 0.1-250 µM.
The test system of experiment [5] is U-87 MG. The experiment can be described thus: Antiproliferative activity against human U87 cells assessed as reduction in cell viability measured after 72 hrs by MTT assay. The class given is functional, cell-based, U-87MG ATCC.
Experiment [6] has as its system MDA-MB-231. The experiment can be described thus: Antiproliferative activity against human MDA-MB-231 cells assessed as reduction in cell viability measured after 72 hrs by MTT assay. Particulars: MDA-MB-231, 72 h. The class given is functional, cell-based.
The subject of experiment [7] is U-251. Put plainly: Antiproliferative activity against human U-251 cells assessed as reduction in cell viability measured after 72 hrs by MTT assay. It counts as functional, cell-based. Particulars: U-251, 72 h.
In experiment [8] the test system is Daoy. The experiment can be described thus: Antiproliferative activity against human Daoy cells assessed as reduction in cell viability measured after 72 hrs by MTT assay. The class given is functional, cell-based.
For experiment [9], the system named is U-251. The experiment can be described thus: Induction of apoptosis in human U-251 cells assessed as increase in accumulation of cells at sub-G1 phase at 0.1 uM measured after 72 hrs by propidium iodide staining based flow cytometry. The class given is functional, cell-based. (In flow cytometry, cells or beads pass a laser one at a time.)
The test system of experiment [10] is U-251. Put plainly: Induction of cell cycle arrest in human U-251 cells assessed as increase in accumulation of cells at G1 phase at 0.1 uM measured after 72 hrs by propidium iodide staining based flow cytometry. It counts as functional.
Experiment [11] deals with U-251. The experiment can be described thus: Induction of cell cycle arrest in human U-251 cells assessed as accumulation at S phase at 1 uM measured after 72 hrs by propidium iodide staining based flow cytometry. The class given is functional.
Experiment [12] relates to U-251. The experiment can be described thus: Induction of cell cycle arrest in human U-251 cells assessed as accumulation at G1 phase at 1 uM measured after 72 hrs by propidium iodide staining based flow cytometry. It counts as functional.
Experiment [13] deals with U-251. Put plainly: Induction of cell cycle arrest in human U-251 cells assessed as accumulation at G2/M phase at 1 uM measured after 72 hrs by propidium iodide staining based flow cytometry. The class given is functional.

Calls of active or inactive are those of the source. The rule behind the calls is not given here.

As to `O=C1C[C@H]2O[C@H](CO)[C@@H](O)[C@H]2O1`, the result in the experiment with U-87 MG [1], in the experiment on Daoy [2], with U-251 [3] and in the experiment on MDA-MB-231 [4] was inactive.

Broadly, the IC50 is the concentration needed to halve the response being measured. As to `COc1cccc2c1C(=O)c1c(O)c3c(c(O)c1C2=O)C[C@@](O)(C(=O)CO)C[C@@H]3O[C@H]1C[C@H](N)[C@H](O)[C@H](C)O1` [DOXORUBICIN], the 50% inhibitory concentration (IC50) in the experiment on U-87 MG [5] turned out to be 0.186 µM; with MDA-MB-231 [6] it was 0.482 µM; in the experiment with U-251 [7] it was 0.106 µM; in the experiment with Daoy [8], 0.0629 µM. Further, the result with U-251 [9] and in the experiment with U-251 [10] was Active.

On to `O=C1C[C@H]2O[C@@H](CI)[C@@H](O)[C@H]2O1`, for which the figures for the IC50 with U-87 MG [5], in the experiment on U-251 [7] and in the experiment on Daoy [8] were 7.61 µM, 529 µM and 141 µM, respectively. Further, the outcome in the experiment with U-251 [11], in the experiment with U-251 [12] and in the experiment on U-251 [13] was inactive.

In the case of `O=C1C[C@H]2O[C@@H]([C@H](O)c3ccccc3)[C@@H](O)[C@H]2O1`, the result with U-87 MG [1], in the experiment on Daoy [2], in the experiment with U-251 [3] and in the experiment on MDA-MB-231 [4] was inactive.

In the case of `O=C(/C=C/c1ccccc1)O[C@H](c1ccccc1)[C@@H]1O[C@@H]2CC(=O)O[C@@H]2[C@@H]1O`, the IC50 is 32.4 µM in the experiment with U-87 MG [5], 535 µM with MDA-MB-231 [6], 1.34 µM in the experiment with U-251 [7] and 612 µM in the experiment with Daoy [8]. Also, the outcome in the experiment with U-251 [11], in the experiment with U-251 [12] and with U-251 [13] was inactive.

Regarding `O=C1C[C@H]2O[C@H](CO)[C@@H](OCc3ccccc3)[C@H]2O1`, the result with U-87 MG [1], in the experiment on Daoy [2], in the experiment on U-251 [3] and in the experiment on MDA-MB-231 [4] was inactive.

Turning to `O=C1C[C@H]2O[C@@H]([C@@H](O)c3ccccc3)[C@@H](O)[C@H]2O1`, the result with U-87 MG [1], with Daoy [2], in the experiment with U-251 [3] and with MDA-MB-231 [4] was inactive.

Consider `O=C1C[C@H]2O[C@@H](CO)[C@@H](O)[C@H]2O1`, for which the result with U-87 MG [1], in the experiment on Daoy [2], in the experiment on U-251 [3] and in the experiment with MDA-MB-231 [4] was inactive.

For `O=C1C[C@H]2O[C@@H](CO)[C@@H](OCc3ccccc3)[C@H]2O1`, the outcome with U-87 MG [1], with Daoy [2], with U-251 [3] and in the experiment on MDA-MB-231 [4] was inactive.

Source of the values: ChEMBL document CHEMBL4834475, “Synthesis of anti-proliferative [3.3.0]furofuranone derivatives by lactonization and functionalization of C-glycosyl compounds” (Bioorg Med Chem, 2021).
